In patent US20130296372A1, “USE OF PRO-[…] UK-2A FOR CONTROL OF SOYBEAN RUST” (DOW AGROSCIENCES LLC, priority 2012, published 2013):

System: soybean Asian rust—Phakopsora pachyrhizi (PHAKPA)
Assay: Efficacy on soybean rust: greenhouse soybean plants sprayed, then inoculated with spore suspension
Format: in vivo, Phakopsora pachyrhizi on soybean plants
Conditions: pre-inoculation; for PHAKPA Control % 14 DAA: 14 days after application; for PHAKPA Control % 12 DAA: 12 days after application
Procedure: Soybean plants were inoculated with an aqueous spore suspension of the fungal pathogen (soybean Asian rust—Phakopsora pachyrhizi) at 2 h and 24 h post compound application. Additionally, infected untreated plants with sporulating lesions were placed among the test pots throughout the duration of the tests. The soybean plants were propagated from seed in a greenhouse, at a density of 3 seeds per pot containing a sandy loam. The plants were sprayed at growth stage V2 to V3 (2-3 trifoliates developed) and subsequently inoculated with the pathogen at the time intervals indicated above. Following inoculation, the plants were maintained under conditions of high humidity and at 26° C. to support spore germination and host leaf colonization. Assessments were made 12-15 days after inoculation. Aliquots of a 10% SC formulation of Compound I were diluted into water to achieve spray solutions containing 25, 100 and 400 ppm of the active ingredient. The spray solutions were also supplemented with either Trycol 5941 or one of several alternative adjuvant chemistries. Treatment solutions were sprayed to run-off using a hand held sprayer.

[1] = 400 ppm Compound I + Trycol 5941 0.2 % v/v

COc1ccnc(C(=O)N[C@H]2COC(=O)[C@H](Cc3ccccc3)[C@@H](OC(=O)C(C)C)[C@H](C)OC2=O)c1OCOC(=O)C(C)C [Compound I]
PHAKPA Control % 14 DAA (25 ppm Compound I + Trycol 5941 0.2 % v/v): D (1-25)
PHAKPA Control % 14 DAA (100 ppm Compound I + Trycol 5941 0.2 % v/v): C (26-50)
PHAKPA Control % 12 DAA (400 ppm Compound I + Agbem 0.2 % v/v): B (51-75)
PHAKPA Control % 12 DAA (400 ppm Compound I + Agral 0.2 % v/v): B (51-75)
PHAKPA Control % 12 DAA (400 ppm Compound I + Aterbane 0.2 % v/v): B (51-75)
PHAKPA Control % 12 DAA (400 ppm Compound I + Joint 0.2 % v/v): A (76-100)
PHAKPA Control % 12 DAA (400 ppm Compound I + Nimbus 0.2 % v/v): A (76-100)
PHAKPA Control % 12 DAA [1]: B (51-75)
PHAKPA Control % 14 DAA [1]: A (76-100)
PHAKPA Control % 12 DAA (400 ppm Compound I + Vegetable Oil 0.2 % v/v): A (76-100)
